Test results from patent US8790675B2, “Biocide compositions comprising carbamates” (priority 2009, dated 2014).

Assay: Solubility of biocides in solvents at 25° C.
Conditions: for Solubility of biocides: Tebucanozole: Tebucanozole dissolved in the solvent, 25° C.
Procedure: Solubility of two fungicides, one herbicide and two insecticides in different dialkyl amides at 25° C. was tested.

| Compound | able to dissolve or disperse a wide range of biocides better than solvents known from the state of the art (wide range of biocides, versus state-of-the-art solvents) | Solubility of biocides: Tebucanozole |
| --- | --- | --- |
| CN(C)C(=O)OCCO [Example 5] | 20% |  |
| CCCCNC(=O)OCCO [Example 7] |  | 20 % b.w. |
| CCCNC(=O)OCCO [Example 8] |  | 23 % b.w. |
